{"source": "patent US9498436B2", "about": "“Testosterone solutions for the treatment of testosterone deficiency” (INNOTESTO BVBA, priority 2010, dated 2016)", "assay": "Testosterone serum level after oromucosal (buccal) administration of testosterone solution, chemiluminescent-immunoassay", "conditions": "for mean increase of the testosterone level per 500 μg T: 30 minutes after buccal administration; for increase per 100 μg T / increase per 500 μg T: buccal solution; for concentration at 30 min: increase of testosterone serum level, 30 minutes post dose, volunteer, baseline 10-15 nmol/L", "procedure": "Devices used in the experimental oromucosal application of the solutions of the invention were glass bottles with a spray device from Valois, type VP7, allowing the administration of volumes of 25 μL, 50 μL and 100 μL\nBlood samples were taken and analysed for testosterone serum levels using a chemiluminescent-immunoassay (Access Beckman Coulter).\n• Testosterone levels were measured 30 minutes after buccal administration of the testosterone solution by a spray pump with a spray volume of 25 μl, 50 μl or 100 μl. • Oromucosal (buccal,sublingual) testosterone solutions administered were in 17 cases a solution in water containing as main constituents testosterone and RAMEB and in 7 cases testosterone in a solution containing as main excipient isopropyl myristate.", "key": {"[1]": {"conditions": "dose 125 μg T, 30 minutes after administration"}, "[2]": {"conditions": "dose 300 μg T, 30 minutes after administration"}, "[3]": {"conditions": "dose 375 μg T, 30 minutes after administration, separate applications"}, "[4]": {"conditions": "dose 400 μg T, 30 minutes after administration, separate applications"}, "[5]": {"conditions": "dose 570 μg T, 30 minutes after administration, separate applications"}, "[6]": {"conditions": "dose 1000 μg T, 30 minutes after administration"}, "[7]": {"conditions": "dose 1150 μg T, 30 minutes after administration"}, "[8]": {"conditions": "mean of 24 buccal applications (17 aqueous, 7 non-aqueous), 30 minutes after administration"}, "[9]": {"conditions": "oromucosal, general statement in description"}}, "note": "Where “and” joins values, the source holds several entries; their conditions need not be identical. Equal entries are not always repeated."}
{"molecule": "C[C@]12CC[C@H]3[C@@H](CCC4=CC(=O)CC[C@@]43C)[C@@H]1CC[C@@H]2O", "note": "[testosterone]", "values": [{"measurement": "testosterone (T) serum level", "setting": "Volunteer M, sample M3, 10.00 am, aqueous solution 500 μg T at 7.30 am, 375 μg T at 9.30 and 11.30 am", "value": 25.45, "unit": "nmol/L"}, {"measurement": "testosterone (T) serum level", "setting": "Volunteer M, sample M4, 12.00 am, aqueous solution 500 μg T at 7.30 am, 375 μg T at 9.30 and 11.30 am", "value": 18.81, "unit": "nmol/L"}, {"measurement": "mean increase of the testosterone level per 500 μg T", "setting": "aqueous formulations (testosterone and RAMEB, ethanol 15% v/v), 17 cases", "value": 15.2, "unit": "nmol/L"}, {"measurement": "increase per 100 μg T", "setting": "[1]", "value": 2.7, "unit": "nmol/L"}, {"measurement": "increase per 500 μg T", "setting": "[1]", "value": 14, "unit": "nmol/L"}, {"measurement": "increase per 100 μg T", "setting": "[2]", "value": 4.2, "unit": "nmol/L"}, {"measurement": "increase per 500 μg T", "setting": "[2]", "value": 21, "unit": "nmol/L"}, {"measurement": "increase per 100 μg T", "setting": "[3]", "value": "4.3 nmol/L and 2.4 nmol/L"}, {"measurement": "increase per 500 μg T", "setting": "[3]", "value": "22 nmol/L and 12 nmol/L"}, {"measurement": "increase per 100 μg T", "setting": "[4]", "value": "3.0 nmol/L and 2.0 nmol/L"}, {"measurement": "increase per 500 μg T", "setting": "[4]", "value": "15 nmol/L and 10 nmol/L"}, {"measurement": "increase per 100 μg T", "setting": "[5]", "value": "4.0 nmol/L and 4.4 nmol/L"}, {"measurement": "increase per 500 μg T", "setting": "[5]", "value": "20 nmol/L and 22 nmol/L"}, {"measurement": "increase per 100 μg T", "setting": "[6]", "value": 3.8, "unit": "nmol/L"}, {"measurement": "increase per 500 μg T", "setting": "[6]", "value": 19, "unit": "nmol/L"}, {"measurement": "increase per 100 μg T", "setting": "[7]", "value": 3.1, "unit": "nmol/L"}, {"measurement": "increase per 500 μg T", "setting": "[7]", "value": 16, "unit": "nmol/L"}, {"measurement": "concentration at 30 min", "setting": "human, serum, other: buccal (oromucosal spray), 400 μg, non-aqueous solution, 50 μL=400 μg testosterone buccally", "value": 18, "unit": "nM"}, {"measurement": "concentration at 30 min", "setting": "human, serum, other: buccal (oromucosal spray), 500 μg, aqueous solution, 100 μL (=500 μg testosterone) buccally", "value": 20, "unit": "nM"}, {"measurement": "concentration at 30 min", "setting": "human, serum, other: buccal (oromucosal spray), 800 μg, non-aqueous solution, 100 μL=800 μg testosterone buccally", "value": 36, "unit": "nM"}, {"measurement": "concentration at 30 min", "setting": "human, serum, other: buccal (oromucosal spray), 1000 μg, aqueous solution, 2×100 μL (=1000 μg testosterone) buccally", "value": 38, "unit": "nM"}, {"measurement": "concentration at 0 h", "setting": "human, serum, other: buccal (oromucosal spray), testosterone (T) serum level, Volunteer D, sample D1, 7.30 am (time of first dose), aqueous solution 500 μg T at 7.30, 9.30, 11.30 am", "value": 11.9, "unit": "nM"}, {"measurement": "concentration at 0.5 h", "setting": "human, serum, other: buccal (oromucosal) solution, spray, 500 μg, testosterone (T) serum level, Volunteer D, sample D2, 8.00 am, aqueous solution 500 μg T at 7.30, 9.30, 11.30 am", "value": 18.6, "unit": "nM"}, {"measurement": "concentration at 2.5 h", "setting": "human, serum, other: buccal (oromucosal) solution, spray, 500 μg, testosterone (T) serum level, Volunteer D, sample D3, 10.00 am, aqueous solution 500 μg T at 7.30, 9.30, 11.30 am", "value": 28.1, "unit": "nM"}, {"measurement": "concentration at […]", "setting": "human, serum, other: buccal (oromucosal) solution, spray, 500 μg, testosterone (T) serum level, Volunteer D, sample D4, 12.00 am, aqueous solution 500 μg T at 7.30, 9.30, 11.30 am", "value": 28.7, "unit": "nM"}, {"measurement": "concentration at 0 h", "setting": "human, serum, other: buccal (oromucosal) solution, spray, 500 μg, testosterone (T) serum level, Volunteer M, sample M1, 7.30 am (time of first dose), aqueous solution 500 μg T at 7.30 am, 375 μg T at 9.30 and 11.30 am", "value": 8.72, "unit": "nM"}, {"measurement": "concentration at 0.5 h", "setting": "human, serum, other: buccal (oromucosal) solution, spray, 500 μg, testosterone (T) serum level, Volunteer M, sample M2, 8.00 am, aqueous solution 500 μg T at 7.30 am, 375 μg T at 9.30 and 11.30 am", "value": 25.5, "unit": "nM"}, {"measurement": "mean (SD) increase per 100 μg T", "setting": "[8]", "value": "3.1 nmol/L and 3.1(0.9) nmol/L"}, {"measurement": "mean (SD) increase per 500 μg T", "setting": "[8]", "value": "15.7 nmol/L and 15.7(4.6) nmol/L"}, {"measurement": "mean increase of the testosterone level per 500 μg T", "setting": "non-aqueous formulations (isopropyl myristate, ethanol 15% v/v), 7 cases", "value": 16.7, "unit": "nmol/L"}, {"measurement": "mean increase in testosterone serum level for each 0.1 mg testosterone dose administered", "setting": "[9]", "value": "about 3 nmol/L"}, {"measurement": "mean increase in testosterone serum level for each 0.5 mg testosterone dose administered", "setting": "[9]", "value": "about 15 nmol/L"}]}
